Earlier results in US10813968B2, “Method of treating a human suffering from post exercise muscle soreness” (Provexis Natural Products Limited, priority 2012, dated 2020).

Conditions: 3 hours after supplementation supplying 200 μg folic acid

Compound: Nc1nc2ncc(CNc3ccc(C(=O)N[C@@H](CCC(=O)O)C(=O)O)cc3)nc2c(=O)[nH]1 [folic acid]
- typical plasma folate concentration: 5 ng/mL
